Assay results reported in US7034020B2, “Derivatives of butyric acid and uses thereof” (The University of Arkansas for Medical Science, priority 1999, dated 2006).

What was measured:
[1] = tested on: KLH-specific Th1 cells (clone D3); test: IL-2-induced proliferation of Th1 cells in the presence of butyrate derivatives; assay type: cell-based, C57BL/10 mice
Protocol: KLH-specific Th1 cells (clone D3) are stimulated with IL-2 (10% Con A CM) in the presence of different concentrations of n-butyrate or butyrate derivatives. In FIG. 2A Th1 cell proliferation is measured after 2 days. In FIG. 2B, the inhibitors are washed out after 24 hours, and the Th1 cells reincubated with fresh IL-2-containing medium. Proliferation of the Th1 cells restimulated with IL-2 in the absence of the inhibitors is measured after an additional 2 days. This experiment was repeated three times, and the proliferation data represents the means of the […] experiments.
The KLH-specific were developed in C57BL/10 mice, and characterized as Th1 clones based on their ability to secrete IL-2, but not IL-4. The Th1 clones were passed every 7–14 days using KLH, irradiated syngeneic spleen cells as antigen-presenting cells (APC), and IL-2-containing Con A CM using a previously described protocol (Gilbert et al., 1990).
To test the ability of the butyrate derivatives to suppress T cell activity […], Th1 cells [(5×10^4 cells/well in 96 well plates (Costar)] are stimulated with 10% IL-2-containing Con A CM in the presence of various concentrations of different butyrate derivatives. In some cultures, Th1 cell proliferation is measured after two days. In other cultures, the Th1 cells are washed after 24 hours, and fresh IL-2-containing medium is added. Proliferation is measured in the washed, IL-2-restimulated cultures after an additional 2 days.

[2] = tested on: total anti-ovalbumin antibody in the serum; test: Primary anti-ovalbumin antibody production in vivo (ELISA), derivatives on Days 1–3; parameters: species or system C57BL/10 mice; conditions: 0.091 mmol ip Days 1–3; serum day 10
Protocol: C57BL/10 mice are injected ip on Day 0 with ovalbumin followed by ip injections of saline, or one of three different butyrate derivatives on Days 1–3.
The butyrate derivatives are tested for their ability to suppress lymphocyte activity in vivo. C57BL/10 mice (5 mice/group) are injected ip with 100 μg of ovalbumin in conjunction with complete Freund's adjuvant on Day 0. In one experiment, the mice also receive one ip injection per day of the butyrate derivatives (0.091 mmol) on Days 1–3. Serum samples are obtained 10 days after the initial injection with ovalbumin, and tested for the presence of anti-ovalbumin antibodies using an ELISA. To perform the ELISA 96 well plates (Costar 3595) are first incubated with ovalbumin (100 μl/well of 100 μg/ml in PBS) overnight at 4° C. The plates are then washed 4 times with PBS and 0.5% Tween 20, blocked with 1% fetal calf serum for 30 minutes at 37° C., and washed again. Individual serum samples are added (diluted 1/100 or 1/1000 in PBS), and the plates are incubated for 2 hours at 20° C. The plates were next washed 7 times with PBS/Tween, and alkaline phosphate (AP)-labeled goat anti-mouse IgG, IgA, IgM (H+L) (Zymed) is added ( 1/1000) for 1 hour at 20° C. The plates are again washed 7 times with PBS/Tween, alkaline phosphate substrate (1 mg/ml) is added. After 10 minutes, Ig levels are quantified by an ELISA reader (absorbance 405 nm). The concentration of anti-ovalbumin is determined by comparison with a standard curve obtained using mouse anti-ovalbumin antibody (Sigma; St. Louis, Mo.). To measure isotype-specific anti-ovalbumin antibodies, serum samples (diluted at 1/300 or 1/1000) are incubated on the ovalbumin-coated plates as described above. […] Ig levels are presented as OD measurements.

[3] = tested on: spleen cells from DBA/2 mice; test: Mixed lymphocyte response (MLR), alloantigen-specific T cell unresponsiveness; assay type: cell-based
Protocol: (FIG. 6A) Spleen cells from DBA/2 mice (H-2^d) were stimulated in a primary mixed lymphocyte response (MLR) with irradiated spleen cells or from C57BL/10 mice (H-2^b) in the presence (∘) or absence (●) of MEB (1 mM). As a negative control some wells are stimulated with spleen cells from DBA/2 mice (▾). Proliferation is measured on day 5. (FIG. 6B) After 3 days, some wells in the primary MLR cultures are washed, and rested for a further 2 days. The spleen cells that were stimulated in the primary MLR with spleen cells from C57BL/10 mice in the presence (∘) or absence (●) of MEB are then isolated and reincubated with either the original alloantigen (spleen cells from C57BL/10 mice), with a third-party alloantigen [spleen cells from C3H/HeJ mice (H-2k)], or with IL-2 (Con A CM).
The ability of MEB to induce alloantigen-specific T cell unresponsiveness is shown by incubating spleen cells from DBA/2 mice (H-2^d) (2.5×10^5 in 200 μl /wells) with stimulator cells [2.5×10^5 irradiated (2000R) spleen cells from C57BL/10 mice (H-2^b)]. MEB (1 mM) is added to some wells of the mixed lymphocyte reaction (MLR) 24 hours after the initiation of culture. After an additional 3 days, the MLR cultures are washed, and rested for a further 2 days. The T cells from the MLR are then isolated and reincubated at 2.5×10^5/well with either the initial alloantigen (spleen cells from C57BL/10 mice), or with a third-party alloantigen [spleen cells from C3H/HeJ mice (H-2^k)]. Proliferation in both the primary and secondary MLR is measured on day 5 by assessing incorporation of [^3H]-TdR after a 12 hour pulse.

## CCCC(=O)OCCN1CCOCC1.Cl [MEB, 2-(4-Morpholinyl)ethyl butyrate hydrochloride]
[1]; 10% Con A CM, various concentrations, proliferation after 2 days
  Suppression of IL-2-induced proliferation of Th1 cells: comparable to n-butyrate
[1]; washed after 24 hours, fresh IL-2 medium, additional 2 days
  Proliferation to IL-2 after compounds are washed out: regained their ability to proliferate to IL-2
[2]
  Decrease of primary anti-ovalbumin antibody response versus saline: 65%
[3]; MEB 1 mM in primary MLR, restimulated with C3H/HeJ spleen cells
  Proliferation in secondary MLR, third-party alloantigen: able to proliferate
[3]; MEB 1 mM in primary MLR, restimulated with C57BL/10 spleen cells without MEB
  Proliferation in secondary MLR, initial alloantigen: lose their ability to proliferate
[3]; MEB 1 mM in primary MLR, restimulated with IL-2
  Proliferation in secondary culture, exogenous IL-2: able to proliferate
[3]; MEB 1 mM, day 5
  Spleen cell proliferation in primary one-way MLR: blocked spleen cell proliferation
